Experimental data from the NIST ThermoML archive (doi:10.1016/j.fluid.2009.09.019).
Numbers after ± are expanded uncertainties.

Tests used:
[1] = 293.2 K; 101.33 kPa; Liquid; Vibrating tube method
[2] = refractive index (Na D-line) (dimensionless); details: 293.2 K; 101.33 kPa; Liquid; Standard Abbe refractometry

Structure (SMILES) | mass density [1] [kg/m3] | refractive index [2]
C1CCCCC1 [cyclohexane] | 778.12 ± 0.61 | 1.4263 ± 0.0005
Cc1ccccc1 [toluene] | – | 1.4967 ± 0.0004
O=C1CCCO1 [γ-butyrolactone] | 1128.7 ± 1.1 | 1.4344 ± 0.0005

Results, then the compound that gave them:

mass density [1] [kg/m3] | refractive index [2] | Structure (SMILES)
660.1 ± 0.25 | 1.375 ± 0.0004 | CCCCCC [hexane]
684.1 ± 0.25 | 1.3873 ± 0.0004 | CCCCCCC [heptane]
